Results on two compounds are retold here after PMC6277198, “Molecular basis for activation of lecithin:cholesterol acyltransferase by a compound that increases HDL cholesterol” (eLife, 2018).

Experiment [1] deals with T1, LCAT (Homo sapiens, UniProt P04180).
T1 construct: hydrolysis of 4-methylumbelliferyl palmitate (MUP) by full-length LCAT; made in house; host or cells: HEK293F (transient transfection, secreted)
T1 sequence (P04180 25-440): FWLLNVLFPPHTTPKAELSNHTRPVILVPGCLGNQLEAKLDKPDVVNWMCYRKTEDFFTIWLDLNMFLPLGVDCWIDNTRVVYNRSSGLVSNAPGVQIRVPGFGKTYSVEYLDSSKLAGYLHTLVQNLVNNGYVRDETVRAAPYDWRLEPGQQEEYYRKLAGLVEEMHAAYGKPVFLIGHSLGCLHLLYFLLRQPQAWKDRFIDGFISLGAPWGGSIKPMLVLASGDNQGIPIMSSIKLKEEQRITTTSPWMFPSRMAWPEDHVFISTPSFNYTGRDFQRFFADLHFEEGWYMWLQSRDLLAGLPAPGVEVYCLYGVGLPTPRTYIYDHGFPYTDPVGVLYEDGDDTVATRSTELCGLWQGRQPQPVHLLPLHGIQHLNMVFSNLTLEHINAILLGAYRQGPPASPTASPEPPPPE
Kind of experiment: Soluble esterase assay (pNPB). The experiment is classed as biochemical. Particulars: WT LCAT. As for the experimental part:
(§1) The esterase assay was performed as previously described ([Glukhova et al., 2015]) at least in triplicate. pNPB was diluted to 10 mM into reaction buffer containing 10% dimethylsulfoxide. The reaction was started by addition of 40 μL 1 μM LCAT containing either 3.2% DMSO or 11.1 μM compound 1 to 10 μL of pNPB. The increase in absorbance at 400 nm was monitored on a Spectramax plate reader for 15 min. Significance was determined using a one-way analysis of variance followed by Tukey’s multiple comparisons post-test in GraphPad Prism.

The subject of experiment [2] is LCAT. Kind of experiment: Soluble esterase assay (pNPB). The class given is biochemical, human. Conditions: any variant of LCAT. As for the experimental part: as §1
Experiment [3] addresses T2, WT LCAT (Homo sapiens, UniProt P04180).
T2 sequence (P04180 25-440): T1 sequence (P04180 25-440)
Put plainly: DHE acyltransferase assay with peptide-based HDLs. The experiment is classed as biochemical. Set-up: hydrolysis of 4-methylumbelliferyl palmitate (MUP) by full-length LCAT; made in house; host or cells: HEK293F (transient transfection, secreted). The protocol:
Peptide-based HDLs were used in this assay as there is no difference between peptide HDLs and ApoA-I HDLs in both HDL binding and acyltransferase assays ([Manthei et al., 2017]). The peptide HDLs were made using the ESP24218 peptide with the sequence […] ([Dassuex et al., 1999]; [Li et al., 2015]) with a DPPC:POPC:DHE ratio of 47:47:6 as previously described ([Manthei et al., 2017]). The assay was performed in 384-well low volume black microplates (Corning 4514) with a total assay volume of 16 μL. In each reaction, LCAT was diluted in assay buffer to 15 μg mL^−1 in the presence of either 1% DMSO or 10 μM 2 with 1% DMSO. Compound 2 was used in this assay because it has lower background fluorescence than 1. The DHE HDLs were diluted in 1X PBS with 1 mM EDTA and 5 mM β-mercaptoethanol. 8 μL of the HDLs were added to the plate, and the reactions were initiated with 8 μL of LCAT, so that LCAT was assayed at 7.5 μg mL^−1 with and without 5 μM compound with a range of DHE concentrations from 0 to 50 μM. The reactions were stopped after 25 min at 37 °C with the addition of 4 μL of stop solution (1X PBS with 1 mM EDTA, 5 U mL^−1 cholesterol oxidase (COx), and 7% Triton X100). Following the addition of stop solution, the plates were incubated for another 60 min at 37 °C to allow for the COx to react. After the plates were re-equilibrated at room temperature, fluorescence was determined on a SpectraMax plate reader with excitation at 325 nm and emission at 425 nm, with a 420 nm cutoff. Reactions without LCAT were used for background subtraction, and reactions without LCAT and stop solution lacking COx were used to generate a standard curve for DHE. Reactions were performed in triplicate with three independent experiments per LCAT variant. Data were processed via background subtraction to remove excess fluorescence that results from the higher concentrations of DHE. […] Outliers were removed using automatic outlier elimination within Prism. For statistical analysis, the Vmax for each variant was compared to WT using a one-way analysis of variance followed by Tukey’s multiple comparisons post-test in GraphPad Prism.
To determine EC50 values, compound 2 was titrated from 0.004 to 10 μM, and the DHE concentration was set at 50 μM. LCAT was diluted in assay buffer and compound 2 dilutions were made with assay buffer containing 5.3% DMSO. 1.5 μL compound was added, then 6.5 μL LCAT, followed by 8 μL DHE. Dilutions were adjusted so that LCAT was assayed at 7.5 μg mL^−1, as above. All values were background subtracted to buffer with the same concentration of compound 2. A standard curve was included in one experiment with DHE from 0 to 50 μM in order to adjust the final fluorescence values to a rate by dividing by the slope of the line and time (25 min), as above. […]

As for `N#Cc1cnc(N2CCC(c3n[nH]c4c3C(O)(C(F)(F)F)CC(=O)N4)CC2)cc1C(F)(F)F` (stereo not drawn) [compound 1, 6-(4-(4-Hydroxy-6-oxo-4-(trifluoromethyl)−4,5,6,7-tetrahydro-1H-pyrazolo[3,4-b]pyridin-3-yl)piperidin-1-yl)−4-(trifluoromethyl)nicotinonitrile], the “Effect on pNPB esterase activity of WT” value in experiment [1] is “seemed to inhibit”. In experiment [2], the “Stimulation of pNPB esterase activity” value is reported as “did not stimulate”.
In the case of `O=C1CC(O)(C(F)(F)F)c2c(C3CCN(c4cnc(C(F)(F)F)cn4)CC3)n[nH]c2N1` (stereo not drawn) [compound 2, 4-Hydroxy-4-(trifluoromethyl)−3-(1-(5-(trifluoromethyl)pyrazin-2-yl)piperidin-4-yl)−4,5-dihydro-1H-pyrazolo[3,4-b]pyridin-6(7H)-one], in experiment [3] (WT LCAT, peptide-based HDLs), the “Fold activation, DHE acyltransferase activity” value is recorded as 2.8 fold. For the same compound, the acyltransferase rate in experiment [3] (WT LCAT, lowest concentration of compound 2 examined) was found to be 11 µM/h. The half-maximal effective concentration (EC50) in experiment [3] (WT, compound 2 titrated from 0.004 to 10 μM, DHE 50 μM) came to 280 ± 90 nM. Moreover, the “Vmax, DHE assay” value in experiment [3] (with 5 μM compound 2 (22 without)) was 37 μM DHE-ester hr^−1.

As a reminder, the EC50 is the concentration at which the effect is half-maximal. Higher therefore signals weaker potency.
